# Patent US20260069693A1, “UROLITHINS AND T-CELL MEDIATED IMMUNE RESPONSE” (priority 2022, published 2026)
# Legend:
# APTK-OVA tumors = assay: adoptive transfer of UA-conditioned OT-1 T cells into mice bearing APTK-OVA tumors; type: in vivo, Rag1^−/− mice
# Text: Adoptive cell transfer (ACT) represents the infusion of antigen-specific leukocytes with direct antitumor activity, yet identification, selection and expansion of lymphocyte subsets harboring optimal antitumor qualities remains one of the most crucial challenges (Rosenberg and Restifo, 2015). ACT benefits especially from minimally differentiated cells due to their improved survival and long-term potential to generate unexhausted effector cells (Luca Gattinoni et al; Mo et al., 2021; Roberto et al., 2015). In particular, CD8^+ T cells restricted in a stem-like state have been associated with enhanced tumor suppressive properties upon adoptive cell transfer (Enrico Lugli et al; Verma et al., 2021). […] The inventors cultured T cells from OT-1 donor mice (FIG. 3A) for 48 hours in the presence of UA or vehicle control, followed by adoptive transfer into immunodeficient Rag1^−/− mice. […] Moreover, consistent with an improved memory response, animals receiving UA-pretreated T cells contained less Tim3^HiPD1^Hi terminally exhausted CD8^+ T cells in the TME (FIG. 3I). Thus, UA augments immune-mediated antitumor memory upon adoptive cell transfer.
# For adoptive cell transfer transfer, purified splenic T cell from OT1 mice were isolated and activated using aCD3/aCD28 stimulation beads for 48 h. After magnetic bead removal, 1×10^6 T of activated T cell were intravenously injected into Rag1^−/− recipients. To study survival of transferred T cells, stimulated OT-1 T cells were injected into mice without tumors. Subsequently, after 7 days, spleens were isolated and splenocytes were stained for the CD8^+ subsets as described below. To understand antitumor immunity conferred by transferred OT-1 lymphocytes, cells were injected into mice carrying APTK-OVA tumors 10 days after subcutaneous organoid transplantation. Tumor growth was assessed as described above. Mice were kept under regular chow food for the T cell adoptive transfer experiment and sacrificed collectively when maximum tumor diameter extended 1.5 cm.
# Tumors were minced and digested with Tumor & Tissue Dissociation Reagent (BD Horizon) for 30 min. The remaining organ pieces were filtered through a 70 μm cell strainer. Cells were then washed with PBS 1% BSA and 2 mM EDTA. Immune cells were enriched on a 30%/40%/75% Percoll gradient after a 1700 rpm 17 min centrifugation. […]
# Nalm-6 cells = assay: CD19-CAR T cell killing assay; type: cell-based, human; conditions: 24 h co-culture, CAR T cells generated with UA vs DMSO
# Description: The cytotoxic activity of CD19-CAR T cells generated in presence or absence of UA was determined by CD19-positive Nalm-6 cell killing. Three days post transduction, CAR expression was determined and normalized to equal CAR T cell levels. Cells were washed twice and 0.5×10^4 CAR T cells were seeded into NutriT medium without cytokines, UA or DMSO. Nalm-6 cells were labeled using CellTrace™ Violet (CTV; Thermo Fisher Scientific, C34557) following manufacturer's instructions and 1×10^4 labeled Nalm-6 cells were added to the CAR T cells (0.5:1 effector to target ratio). The amount of dead target cells was determined via flow cytometry 24 h after start of killing.
# [1] = commercially-available supplements containing UA; cited from earlier work
# APTK-s.c. tumors = assay: subcutaneous APTK tumors in Rag1-/- mice, UA diet; conditions: absence of mature T and B cells; UA-containing vs control food
# [2] = UA-T cell transfer vs DMSO treated OT-I T cells
compound,measurement,setting,value
"O=c1oc2cc(O)ccc2c2ccc(O)cc12 [UA, Urolithin A]",CD62L expression in CD8+ TIL,APTK-OVA tumors; [2],remained unchanged
same,expression of CD44 in CD8+ TIL,APTK-OVA tumors; [2],lower expression
same,number of TCF1Hi CD8+ tumor infiltrating T cells,APTK-OVA tumors; [2],higher number
same,"tumor suppression (growth, final tumor weight)","APTK-OVA tumors; UA-conditioned (25 μM, 48 h) vs control OT-I T cells",more substantial tumor suppression
same,Tim3HiPD1Hi terminally exhausted CD8+ T cells in the TME,APTK-OVA tumors; UA-pretreated vs DMSO treated OT-I T cells,less
same,CD19 CAR-T cell mediated killing of NALM-6 leukemia cells,Nalm-6 cells,did not have a negative impact
same,bioavailability profile in humans,[1],favorable bioavailability profile
same,safety in humans,[1],deemed safe
same,tumor growth (protective effect of UA),APTK-s.c. tumors,abrogated the protective effect of UA
